# Results taken from ChEMBL document CHEMBL1150124, “Steroidal and pregnane glycosides from the rhizomes of Tacca chantrieri” (J Nat Prod, 2002).
# The source made the active and inactive calls. No cut-off for these calls is given here.
# Test system: HL-60
# Assay: Cytotoxicity against human HL60 cells at 10 ug/mL
# Type: functional, cell-based
row,Compound,Activity
1,CC(=O)[C@H]1[C@@H](OC(=O)CC[C@H](C)CO[C@@H]2O[C@H](CO)[C@@H](O)[C@H](O)[C@H]2O)C[C@H]2[C@@H]3CC=C4C[C@@H](O[C@@H]5O[C@H](CO)[C@@H](O)[C@H](O[C@@H]6O[C@@H](C)[C@H](O[C@@H]7O[C@H](CO)[C@@H](O)[C@H](O)[C@H]7O)[C@@H](O)[C@H]6O)[C@H]5O[C@@H]5O[C@@H](C)[C@H](O)[C@@H](O)[C@H]5O)CC[C@]4(C)[C@H]3CC[C@@]21C,inactive
2,CO[C@]1(CC[C@H](C)CO[C@@H]2O[C@H](CO)[C@@H](O)[C@H](O)[C@H]2O)O[C@H]2C[C@H]3[C@@H]4CC=C5C[C@@H](O[C@@H]6O[C@H](COC(C)=O)[C@@H](O)[C@H](O[C@@H]7O[C@@H](C)[C@H](O[C@@H]8O[C@H](CO)[C@@H](O)[C@H](O)[C@H]8O)[C@@H](O)[C@H]7O)[C@H]6O[C@@H]6O[C@@H](C)[C@H](O)[C@@H](O)[C@H]6O)CC[C@]5(C)[C@H]4CC[C@]3(C)[C@H]2[C@@H]1C,inactive
3,CC(=O)C1=CC[C@H]2[C@@H]3CC=C4C[C@@H](O[C@@H]5O[C@H](CO)[C@@H](O)[C@H](O[C@@H]6O[C@@H](C)[C@H](O[C@@H]7O[C@H](CO)[C@@H](O)[C@H](O)[C@H]7O)[C@@H](O)[C@H]6O)[C@H]5O[C@@H]5O[C@@H](C)[C@H](O)[C@@H](O)[C@H]5O)CC[C@]4(C)[C@H]3CC[C@]12C,inactive
4,CC1=C(CC[C@H](C)CO[C@@H]2O[C@H](CO)[C@@H](O)[C@H](O)[C@H]2O)O[C@H]2C[C@H]3[C@@H]4CC=C5C[C@@H](O[C@@H]6O[C@H](CO)[C@@H](O)[C@H](O[C@@H]7O[C@@H](C)[C@H](O[C@@H]8O[C@H](CO)[C@@H](O)[C@H](O)[C@H]8O)[C@@H](O)[C@H]7O)[C@H]6O[C@@H]6O[C@@H](C)[C@H](O)[C@@H](O)[C@H]6O)CC[C@]5(C)[C@H]4CC[C@]3(C)[C@@H]12,inactive
5,CC(=O)OC[C@H]1O[C@@H](O[C@H]2CC[C@@]3(C)C(=CC[C@H]4[C@@H]5C[C@@H]6OC(CC[C@H](C)CO[C@@H]7O[C@H](CO)[C@@H](O)[C@H](O)[C@H]7O)=C(C)[C@@H]6[C@@]5(C)CC[C@@H]43)C2)[C@H](O[C@@H]2O[C@@H](C)[C@H](O)[C@@H](O)[C@H]2O)[C@@H](O[C@@H]2O[C@@H](C)[C@H](O[C@@H]3O[C@H](CO)[C@@H](O)[C@H](O)[C@H]3O)[C@@H](O)[C@H]2O)[C@@H]1O,inactive
6,CO[C@]1(CC[C@H](C)CO[C@@H]2O[C@H](CO)[C@@H](O)[C@H](O)[C@H]2O)O[C@H]2C[C@H]3[C@@H]4CC=C5C[C@@H](O[C@@H]6O[C@H](CO)[C@@H](O)[C@H](O[C@@H]7O[C@@H](C)[C@H](O[C@@H]8O[C@H](CO)[C@@H](O)[C@H](O)[C@H]8O)[C@@H](O)[C@H]7O)[C@H]6O[C@@H]6O[C@@H](C)[C@H](O)[C@@H](O)[C@H]6O)CC[C@]5(C)[C@H]4CC[C@]3(C)[C@H]2[C@@H]1C,inactive
7,CO[C@]1(CC[C@H](C)CO[C@@H]2O[C@H](CO[C@@H]3O[C@H](CO)[C@@H](O)[C@H](O)[C@H]3O)[C@@H](O)[C@H](O)[C@H]2O)O[C@H]2C[C@H]3[C@@H]4CC=C5C[C@@H](O[C@@H]6O[C@H](CO)[C@@H](O)[C@H](O[C@@H]7O[C@@H](C)[C@H](O[C@@H]8O[C@H](CO)[C@@H](O)[C@H](O)[C@H]8O)[C@@H](O)[C@H]7O)[C@H]6O[C@@H]6O[C@@H](C)[C@H](O)[C@@H](O)[C@H]6O)CC[C@]5(C)[C@H]4CC[C@]3(C)[C@H]2[C@@H]1C,inactive
